Test results: patent publication US20230391772A1, “METHODS AND COMPOSITIONS FOR TARGETED PROTEIN DEGRADATION” (Ranok Therapeutics (Hangzhou) Co. Ltd., priority 2020, published 2023)

Columns and labels:
HSP90a protein = target: T1, HSP90a protein (Homo sapiens, UniProt P07900); assay: HSP90α-binding fluorescent polarization (FP) assay, BODIPY-labeled RNK04010 probe; details: FP competition with RNK04010 (BODIPY-labeled), 5 nM, 300 min at 25° C.
T1 construct: purchased BPS Bioscience 50298
Outline: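 N-terminal HSP90a construct; tracer 5 nM final (FITC-geldanamycin or BODIPY-RNK04010, a labeled triazolone binder). Compounds 20 μM–5.2 nM, 2.5-fold steps. 25° C, 120 min (FITC) / 300 min (BODIPY). FP readout.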

[1] = test system: MIA PaCa-2 human pancreatic carcinoma; assay: MIA PaCa-2 CCK-8 proliferation assay; assay type: cell-based; details: Homo sapiens, MIA PaCa-2, 72 h, MIA PaCa-2 cells
Outline: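 KRAS(G12C) lines were used: MIA PaCa-2 with 2 copies, and NCI-H358 and NCI-H23 with 1 copy each. Cells were treated with 3-fold compound dilutions from 20 μM to 1.02 nM, and proliferation was read by CCK-8 absorbance. % inhibition was calculated against DMSO-treated cells after subtracting the cell-free medium blank.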

KRAS(G12C) = KRAS(G12C) (Homo sapiens, UniProt P01116, G12C); assay: KRAS(G12C)/SOS1 homogeneous time-resolved fluorescence (HTRF) assay; set-up: purchased Cisbio 63ADK000CB16PEG; details: absence of GTP, 4° C. for 3 hr, read-out: KRAS (G12C) binding
Outline: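 Three-hour incubation at 4 °C of 3-fold compound dilutions (lowest 1.02 nM) with KRAS(G12C), SOS1 and detection reagents, GTP absent. Disruption of the KRAS(G12C)/SOS1 complex detected by time-resolved fluorescence.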

Chain of KRAS(G12C) (P01116 1-188 isoform P01116-2 G12C): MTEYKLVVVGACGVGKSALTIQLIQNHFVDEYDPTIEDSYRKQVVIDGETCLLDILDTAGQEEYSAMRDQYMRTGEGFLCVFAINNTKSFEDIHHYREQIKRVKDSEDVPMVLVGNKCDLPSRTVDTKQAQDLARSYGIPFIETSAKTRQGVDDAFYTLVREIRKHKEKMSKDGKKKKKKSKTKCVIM

Row | IC50 (HSP90a protein) [µM] | EC50 [1] [µM] | IC50 (KRAS(G12C)) [µM] | Compound
1 | < 0.1 | < 0.1 | < 0.1 | C=CC(=O)N1CCN(c2nc(OC[C@@H]3C[C@@H](NC(=O)C4CCN(Cc5ccc(-n6c(C(=O)NCC(F)(F)F)nnc6-c6cc(C(C)C)c(O)cc6O)cc5)CC4)CN3C)nc3c2CCN(c2cccc4cccc(Cl)c24)C3)C[C@@H]1CC#N [Compound 200, N-((3R,5S)-5-(((4-((S)-4-acryloyl-3-(cyanomethyl)piperazin-1-yl)-7-(8-chloronaphthalen-1-yl)-5,6,7,8-tetrahydropyrido[3,4-d]pyrimidin-2-yl)oxy)methyl)-1-methylpyrrolidin-3-yl)-1-(4-(3-(2,4-dihydroxy-5-isopropylphenyl)-5-((2,2,2-trifluoroethyl)carbamoyl)-4H-1,2,4-triazol-4-yl)benzyl)piperidine-4-carboxamide]
2 | < 0.1 | 0.1 to 1 | 0.1 to 1 | C=CC(=O)N1CCN(c2nc(OC[C@@H]3C[C@@H](NCc4ccc(-n5c(O)nnc5-c5cc(C(C)C)c(O)cc5O)cc4)CN3C)nc3c2CCN(c2cccc4cccc(Cl)c24)C3)C[C@@H]1CC#N [Compound 215, 2-((S)-1-acryloyl-4-(7-(8-chloronaphthalen-1-yl)-2-(((2S,4R)-4-((4-(3-(2,4-dihydroxy-5-isopropylphenyl)-5-hydroxy-4H-1,2,4-triazol-4-yl)benzyl)amino)-1-methylpyrrolidin-2-yl)methoxy)-5,6,7,8-tetrahydropyrido[3,4-d]pyrimidin-4-yl)piperazin-2-yl)acetonitrile]
3 | < 0.1 | 0.1 to 1 | < 0.1 | C=CC(=O)N1CCN(c2nc(OC[C@@H]3C[C@H](NC(=O)C4CCN(C(=O)C5CCN(Cc6ccc(-n7c(O)nnc7-c7cc(C(C)C)c(O)cc7O)cc6)CC5)CC4)CN3C)nc3c2CCN(c2cccc4cccc(Cl)c24)C3)C[C@@H]1CC#N [Compound 309, N-[(3S,5S)-5-({[7-(8-chloronaphthalen-1-yl)-4-[(3S)-3-(cyanomethyl)-4-(prop-2-enoyl)piperazin-1-yl]-5H,6H,8H-pyrido[3,4-d]pyrimidin-2-yl]oxy}methyl)-1-methylpyrrolidin-3-yl]-1-[1-({4-[3-(2,4-dihydroxy-5-isopropylphenyl)-5-hydroxy-1,2,4-triazol-4-yl]phenyl}methyl)piperidine-4-carbonyl]piperidine-4-carboxamide]
4 | < 0.1 | < 0.1 | < 0.1 | C=CC(=O)N1CCN(c2nc(OC[C@@H]3CC[C@H](C(=O)N4CCN(C(=O)c5ccc(-n6c(C(=O)NCC(F)(F)F)nnc6-c6cc(C(C)C)c(O)cc6O)cc5)CC4)N3C)nc3c2CCN(c2cccc4cccc(Cl)c24)C3)C[C@@H]1CC#N [Compound 331, 4-(4-{4-[(2R,5S)-5-({[7-(8-chloronaphthalen-1-yl)-4-[(3S)-3-(cyanomethyl)-4-(prop-2-enoyl)piperazin-1-yl]-5H,6H,8H-pyrido[3,4-d]pyrimidin-2-yl]oxy}methyl)-1-methylpyrrolidine-2-carbonyl]piperazine-1-carbonyl}phenyl)-5-(2,4-dihydroxy-5-isopropylphenyl)-N-(2,2,2-trifluoroethyl)-1,2,4-triazole-3-carboxamide]
5 | < 0.1 | < 0.1 | < 0.1 | C=CC(=O)N1CCN(c2nc(OC[C@@H]3C[C@@H](OCC(=O)N4CCC(CN5CCN(Cc6ccc(-n7c(C(=O)NCC(F)(F)F)nnc7-c7cc(CC)c(O)cc7O)cc6)CC5)CC4)CN3C)nc3c2CCN(c2cccc4cccc(Cl)c24)C3)C[C@@H]1CC#N [Compound 300, 4-(4-((4-((1-(2-(((3R,5S)-5-(((4-((S)-4-acryloyl-3-(cyanomethyl)piperazin-1-yl)-7-(8-chloronaphthalen-1-yl)-5,6,7,8-tetrahydropyrido[3,4-d]pyrimidin-2-yl)oxy)methyl)-1-methylpyrrolidin-3-yl)oxy)acetyl)piperidin-4-yl)methyl)piperazin-1-yl)methyl)phenyl)-5-(5-ethyl-2,4-dihydroxyphenyl)-N-(2,2,2-trifluoroethyl)-4H-1,2,4-triazole-3-carboxamide]
6 | < 0.1 | > 1 | > 1 | C=CC(=O)N1CCN(c2nc(OC[C@@H]3CCN3C(=O)C3CCN(Cc4ccc(-n5c(O)nnc5-c5cc(C(C)C)c(O)cc5O)cc4)CC3)nc3c2CCN(c2cccc4cccc(Cl)c24)C3)C[C@@H]1CC#N [Compound 189, 2-((S)-1-acryloyl-4-(7-(8-chloronaphthalen-1-yl)-2-(((S)-1-(1-(4-(3-(2,4-dihydroxy-5-isopropylphenyl)-5-hydroxy-4H-1,2,4-triazol-4-yl)benzyl)piperidine-4-carbonyl)azetidin-2-yl)methoxy)-5,6,7,8-tetrahydropyrido[3,4-d]pyrimidin-4-yl)piperazin-2-yl)acetonitrile, trifluoroacetic acid]
7 | < 0.1 | 0.1 to 1 | < 0.1 | C=CC(=O)N1CCN(c2nc(OC[C@@H]3C[C@H](C(=O)N4CCN(CCNC(=O)c5nnc(-c6cc(C(C)C)c(O)cc6O)n5-c5ccccc5)CC4)CN3C)nc3c2CCN(c2cccc4cccc(Cl)c24)C3)C[C@@H]1CC#N [Compound 343, N-(2-{4-[(3S,5S)-5-({[7-(8-chloronaphthalen-1-yl)-4-[(3S)-3-(cyanomethyl)-4-(pr-op-2-enoyl)piperazin-1-yl]-5H,6H,8H-pyrido[3,4-d]pyrimidin-2-yl]oxy}methyl)-1-methylpyrrolidine-3-carbonyl]piperazin-1-yl}ethyl)-5-(2,4-dihydroxy-5-isopropylphenyl)-4-phenyl-1,2,4-triazole-3-carboxamide]
8 | < 0.1 | > 1 | < 0.1 | C=CC(=O)N1CCN(c2nc(OCCN3CCC4(CC3)CCN(C(=O)C3CCN(Cc5ccc(-n6c(O)nnc6-c6cc(C(C)C)c(O)cc6O)cc5)CC3)CC4)nc3c2CCN(c2cccc4cccc(Cl)c24)C3)C[C@@H]1CC#N [Compound 218, (S)-2-(1-acryloyl-4-(7-(8-chloronaphthalen-1-yl)-2-(2-(9-(1-(4-(3-(2,4-dihydroxy-5-isopropylphenyl)-5-hydroxy-4H-1,2,4-triazol-4-yl)benzyl)piperidine-4-carbonyl)-3,9-diazaspiro[5.5]undecan-3-yl)ethoxy)-5,6,7,8-tetrahydropyrido[3,4-d]pyrimidin-4-yl)piperazin-2-yl)acetonitrile]
9 | < 0.1 | 0.1 to 1 | < 0.1 | C=CC(=O)N1CCN(c2nc(OC[C@@H]3C[C@H](N4CCC(C(=O)N5CCN(Cc6ccc(-n7c(O)nnc7-c7cc(C(C)C)c(O)cc7O)cc6)CC5)CC4)CN3C)nc3c2CCN(c2cccc4cccc(Cl)c24)C3)C[C@@H]1CC#N [Compound 317, 2-[(2S)-4-[7-(8-chloronaphthalen-1-yl)-2-{[(2S,4S)-4-{4-[4-({4-[3-(2,4-dihydroxy-5-isopropylphenyl)-5-hydroxy-1,2,4-triazol-4-yl]phenyl}methyl)piperazine-1-carbonyl]piperidin-1-yl}-1-methylpyrrolidin-2yl]methoxy}-5H,6H,8H-pyrido[3,4-d]pyrimidin-4-yl]-1-(prop-2-enoyl)piperazin-2-yl]acetonitrile]
10 | < 0.1 | > 1 | > 1 | C=CC(=O)N1CCN(c2nc(OC[C@@H]3C[C@@H](OC(=O)N4CCN(Cc5ccc(-n6c(O)nnc6-c6cc(CC)c(O)cc6O)cc5)CC4)CN3C)nc3c2CCN(c2cccc4cccc(Cl)c24)C3)C[C@@H]1CC#N [Compound 294, (3R,5S)-5-(((4-((S)-4-acryloyl-3-(cyanomethyl)piperazin-1-yl)-7-(8-chloronaphthalen-1-yl)-5,6,7,8-tetrahydropyrido[3,4-d]pyrimidin-2-yl)oxy)methyl)-1-methylpyrrolidin-3-yl 4-(4-(3-(5-ethyl-2,4-dihydroxyphenyl)-5-hydroxy-4H-1,2,4-triazol-4-yl)benzyl)piperazine-1-carboxylate]
11 | 0.1 to 1 | > 1 | < 0.1 | C=CC(=O)N1CCN(c2nc(OC[C@@H]3C[C@H](N4CCC5(CCN(Cc6cc(C(C)C)c(O)cc6O)CC5)CC4)CN3C)nc3c2CCN(c2cccc4cccc(Cl)c24)C3)C[C@@H]1CC#N [Compound 338, 2-[(2S)-4-[7-(8-chloronaphthalen-1-yl)-2-{[(2S,4S)-4-{9-[(2,4-dihydroxy-5-isopropylphenyl)methyl]-3,9-diazaspiro[5.5]undecan-3-yl}-1-methylpyrrolidin-2-yl]methoxy}-5H,6H,8H-pyrido[3,4-d]pyrimidin-4-yl]-1-(prop-2-enoyl)piperazin-2-yl]acetonitrile]
12 | < 0.1 | 0.1 to 1 | 0.1 to 1 | C=CC(=O)N1CCN(c2nc(OC[C@@H]3C[C@H](N4CCC(C(=O)NCCc5ccc(CN6CCC(Cc7ccc(-n8c(C(=O)NCC(F)(F)F)nnc8-c8cc(C(C)C)c(O)cc8O)cc7)CC6)cc5)CC4)CN3C)nc3c2CCN(c2cccc4cccc(Cl)c24)C3)C[C@@H]1CC#N [Compound 330, 1-[(3S,5S)-5-({[7-(8-chloronaphthalen-1-yl)-4-[(3S)-3-(cyanomethyl)-4-(prop-2-enoyl)piperazin-1-yl]-5H,6H,8H-pyrido[3,4-d]pyrimidin-2-yl]oxy}methyl)-1-methylpyrrolidin-3-yl]-N-[2-(4-{[4-({4-[3-(2,4-dihydroxy-5-isopropylphenyl)-5-[(2,2,2-trifluoroethyl)carbamoyl]-1,2,4-triazol-4-yl]phenyl}methyl)piperidin-1-yl]methyl}phenyl)ethyl]piperidine-4-carboxamide]
